Laboratory results reported in patent US9028874B2, “Antioxidant nanosphere comprising [1,2]-dithiolane moieties” (Cedars-Sinai Medical Center, priority 2008, dated 2015).

Columns and labels:
[1] = DPPH radical scavenging assay, Method A (dissolved DPPH); assay type: biochemical; settings: Method A: 50 μM DPPH dissolved in ethanol/water; violet to pale yellow
Method: Method A: 5 mL of 100 μM DPPH solution in ethanol was mixed with 5 mL of water, resulting in a final concentration of 50 μM for DPPH. Trolox and ascorbic acid were dissolved in 100 mM sodium phosphate buffer (pH 7.5, 2.5 mM). The concentration of α-tocopherol in nanospheres was adjusted to 2.5 mM. The predetermined amount of Trolox, ascorbic acid solution and nanospheres were added to the DPPH solution using Hamilton syringe carefully to the bottom of 20 mL glass bottle to minimize the premature mixing. After gentle mixing, pictures were taken using digital camera (50000 pxitex).
The antioxidant capability of the nanospheres was assessed by the scavenging activity of DPPH free radical. The DPPH radical scavenging assay is often used as a model for the measurement of lipid radial scavenging activity of antioxidant compounds. […] The DPPH radical scavenging assay is usually performed in a 50:50 mixture of water and organic solvents, commonly ethanol or dimethyl suloxide, in which the DPPH radical is completely dissolved. In this condition (Method A), the violet color of DPPH radical solution converted instantaneously to the pale yellow color, which is indicative of an instantaneous DPPH radical scavenging by the nanospheres (FIG. 6a, Method A).

[2] = DPPH radical scavenging assay, Method B (fine dispersed DPPH suspension); assay type: biochemical; settings: Method B: DPPH suspension in water
Method: Method B: 400 μL of 1.25 mM DPPH solution in ethanol was added to 9500 μL of water to give a fine dispersed DPPH suspension. Pictures were taken as described above.
In the method B (FIG. 6a), 400 μL of 1.25 mM DPPH solution in ethanol was added to 9500 μL of water to give a fine dispersed DPPH suspension with the particle size of 164±26 nm (polydispersity index 0.03).

[3] = Nanosphere formation by spontaneous emulsification; hydrodynamic size and polydispersity by dynamic light scattering; assay type: physicochemical; settings: 25 mg/5 mL acetone into 10 mL 0.25% w/v Pluronic F-68 in water
Method: Nanospheres were prepared according to the method using spontaneous emulsification with slight modification. Briefly, 25 mg of the compounds were dissolved in acetone (5 mL). The organic solution was poured under moderate stirring on a magnetic plate into an aqueous phase prepared by dissolving 25 mg of Pluronic F68 in 10 mL bidistilled water (0.25% w/v). Following 15 min of magnetic stirring, the acetone was removed under reduced pressure at room temperature. The nanospheres were filtered through 0.45 μm hydrophilic syringe filter and stored at 4° C. The hydrodynamic size measurement and size distribution of the nanospheres was performed by the dynamic light scattering (DLS) using a Coulter N4-Plus Submicron Particle Sizer (Coulter Corporation, Miami, Fla.). The nanospheres were purified by centrifuging three times at 20,000×g for 30 min at 25° C. and resuspending each time in the same volume of deionized water. […] The size was assessed on three separate batches of the nanosphere formulation. The recovery yield was calculated as follows: RY (%)=(mass of the mALA-containing compounds recovered/mass of the mALA-containing compounds used in formulation)×100%. […] The solution was analyzed for the compounds by RP-HPLC. Separation was performed using 80% acetonitrile (0.1% trifluoroacetic acid, TFA) as mobile phase and the eluent was monitored using UV detector at 330 nm. […]

Compound | DPPH radical scavenging (color change) [1] | DPPH radical scavenging (color change) [2] | formation of stable nanospheres [3]
O=C1O[C@H]([C@@H](O)CO)C(O)=C1O [ascorbic acid] | complete and occurred instantaneously | much less color changes | 
O=C(CCCCC1CCSS1)OCCOCCOCCOCCOC(=O)CCCCC1CCSS1 (stereo not drawn) [Compound 4a, 2×Lipoic Acid/Tetraethylene Glycol] |  |  | failure
O=C(CCCCC1CCSS1)OCCN1CCN(CCOC(=O)CCCCC2CCSS2)CC1 (stereo not drawn) [Compound 7a, 2×Lipoic acid/1,4-Bis(2-hydroxyethyl)-piperazine] |  |  | failure
Cc1c(C)c2c(c(C)c1O)CCC(C)(C(=O)O)O2 (stereo not drawn) [Trolox] | complete and occurred instantaneously | much less color changes | 
